Data from patent US11630102B2, “Composition and method for modulating fibroblast growth factor receptor 3 activation” (ACADEMIA SINICA, priority 2017, dated 2023).
“Also recorded” adds a separate entry of the source. Where two headings read alike, the source gives them in different places.

Key:
TDI FGFR3 [1] = target: T1, TDI FGFR3 (Homo sapiens, UniProt P22607, Y373C); test: cell-based translocation assay (ring spot count, high-content imaging); details: for inhibition of FGFR3 activation (in words): cells stably expressing SH2(SH2B)-RrGFP and TDI FGFR3
Procedure: (§2) PKC412 was prepared as a 6% (w/w) stock in DMSO. Live-cell imaging was performed at 37° C. under humidified conditions in a 5% CO2 incubator.
(§3) For high-content screening, all steps of sample-plate preparation, including compound treatment, fixation and plate washing, were fully automated and were performed using a Bio-Tek EL405uv system (Bio-Tek Instruments, Inc., Winooski, Vt., USA). U2OS cells stably expressing TDI FGFR3 and SI-12-RrGFP were seeded at a density of 4×10^3 cells/well in black 96-well Packard Viewplates, incubated overnight in complete medium at 37° C. in a CO2 incubator, and then transferred to 100 μl serum-free medium containing PKC412 or plant extract. The final DMSO concentration was 1%. After incubating for 1 hour at 37° C. in a CO2 incubator, cells were fixed with 4.5% formaldehyde and cell nuclei were labeled with a 2 μg/ml Hoechst stain solution (Sigma-Aldrich).
(§4) Cell images were automatically obtained using an ArrayScan VTI HCS Reader (Cellomics, Pittsburgh, Pa., USA). Filter sets appropriate for detecting the two fluorophores were used, and a 20×0.4 numerical aperture microscope objective was used for imaging. The Compartmental Analysis BioApplication (Cellomics) was used to analyze the images after optimization of the application's protocol settings. For these analyses, the Compartmental Analysis used the Hoechst-labeled nuclei to identify individual cells, and the nucleus (Circle) and cytoplasmic area (Ring) of the cells were defined by parameter settings in the software. The GFP spots in the Ring region were defined and the spot numbers (Ring Spot Count) and spot intensity (Ring Spot Intensity) were quantified by the software.

TDI FGFR3 [2] = target: T1, TDI FGFR3
Procedure: as §2, §3, §4

[3] = solubility of Pa derivatives compared to Pa; format: physicochemical
WT mice = test: treatment of wild-type mice with Pa; format: in vivo; details: 0.09 mg/g/mouse for 7 weeks from 7 days of age
Procedure: (§1) FGFR3^ACH/ACH mice beginning at 7 days of age were treated once-daily with 0.2 mg/g/mouse plant active fractions F4 and F4-IS11 by gavage in 200 μl PBS for 4 or 7 weeks. Control wild type littermates (WT) and FGFR3^ACH/ACH mice were treated with vehicle control. In additional studies, mice were treated with 0.09 mg/g/mouse purified Pa or vehicle control in a similar manner. Body weight and body length were measured weekly.
As mentioned above, Pa was identified as an active compound in the A. viridis extract by means of the method set forth above in Example 4. WT and FGFR3^ACH mice at 7 days of age were treated with vehicle (DMSO) or with 0.09 mg/g/mouse Pa for 7 weeks. The body weight of treated mice was measured weekly.

KMS-11 cells = test: KMS-11 cell proliferation assay (WST-1); format: cell-based, human; details: FGFR3-dependent growth (Y373C FGFR3)
Procedure: Cell proliferation was determined by a colorimetric assay of cell viability based on the cleavage of the tetrazolium salt WST-1 (Roche) by mitochondrial dehydrogenases. Cells were grown in serum-free conditions for 24 h and then were seeded in 96-well plates at a density of 50,000 cells/well in RPMI. Cells were incubated with 1 nM aFGF and 50 μg/ml heparin and various doses of plant extracts in 200 μl RPMI at a final concentration of 1% DMSO. Plates were incubated for 72 h at 37° C., 5% CO2. The WST-1 assay was performed according to the manufacturer's instructions. The absorbance of the formazan dye formed, which correlates with the number of metabolically active cells in the culture, was measured at 450 nm and 690 nm 1 h after adding the reagent. Each experimental condition was performed in triplicate.
The effects of hit 4, hit 4-1, and hit 4-2 were examined on the growth of human myeloma cell line KMS-11 […] expressing TDI FGFR3. KMS-11 cells were stimulated with aFGF/heparin and incubated with DMSO negative control, PKC412 positive control, or 10 μg/ml and 100 μg/ml doses of each tested plant extract. Cell growth was measured as described above.
Fractions were analyzed for their ability to inhibit the FGFR3 activity-dependent growth of human myeloma cell line KMS-11 as described above in Example 3.

FGFR3^ACH/ACH mice = test: treatment of achondroplasia mice; format: in vivo; details: 0.09 mg/g/mouse for 7 weeks from 7 days of age
Procedure: Femurs of mice were dissected and the flesh was removed. The lengths of the femurs were measured using a millimetre-scale calliper ruler.
as §1
Skeletons were analyzed by […] (Skyscan 1076 system, Bruker, Brussels, Belgium) as described above.

T1 sequence (P22607 23-806 Y373C): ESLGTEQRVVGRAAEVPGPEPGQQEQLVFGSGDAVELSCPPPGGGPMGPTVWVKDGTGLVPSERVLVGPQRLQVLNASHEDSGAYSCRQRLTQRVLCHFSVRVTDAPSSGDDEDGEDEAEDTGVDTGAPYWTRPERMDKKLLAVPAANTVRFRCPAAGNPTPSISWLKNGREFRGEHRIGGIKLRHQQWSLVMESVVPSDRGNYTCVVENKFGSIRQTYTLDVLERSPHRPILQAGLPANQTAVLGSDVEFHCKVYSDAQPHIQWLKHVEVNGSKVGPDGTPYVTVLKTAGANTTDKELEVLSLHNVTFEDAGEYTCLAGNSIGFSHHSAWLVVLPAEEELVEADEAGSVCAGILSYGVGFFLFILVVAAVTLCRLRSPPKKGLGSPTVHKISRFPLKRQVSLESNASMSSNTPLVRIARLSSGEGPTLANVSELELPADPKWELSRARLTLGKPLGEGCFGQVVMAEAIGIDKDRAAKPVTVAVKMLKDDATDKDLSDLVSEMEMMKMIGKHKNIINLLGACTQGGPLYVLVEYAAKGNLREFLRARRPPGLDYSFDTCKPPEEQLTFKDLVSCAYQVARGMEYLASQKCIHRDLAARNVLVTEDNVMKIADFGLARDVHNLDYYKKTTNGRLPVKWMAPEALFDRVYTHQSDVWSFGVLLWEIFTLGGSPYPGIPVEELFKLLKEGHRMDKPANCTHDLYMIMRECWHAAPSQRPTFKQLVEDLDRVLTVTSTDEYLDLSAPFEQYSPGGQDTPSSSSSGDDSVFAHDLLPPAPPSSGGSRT

Compound	inhibition of FGFR3 activation (in words) (TDI FGFR3 [1])	other results
NCC(=O)CCC(=O)O [5-aminolevulinic acid, reference compound]	did not	
CO[C@@H]1[C@H](N(C)C(=O)c2ccccc2)C[C@H]2O[C@]1(C)n1c3ccccc3c3c4c(c5c6ccccc6n2c5c31)C(=O)NC4 [PKC412, reference compound]		time to disappearance of punctate GFP signals after treatment (TDI FGFR3 [1]; SH2(SH2B)-RrGFP and TDI FGFR3 expressing cells, not seen with DMSO): ≤ 1 h
Oc1cccc(-c2c3nc(c(-c4cccc(O)c4)c4ccc([nH]4)c(-c4cccc(O)c4)c4nc(c(-c5cccc(O)c5)c5ccc2[nH]5)CC4)C=C3)c1 [temoporfin]		inhibition of FGFR3 activation (in words) (TDI FGFR3 [2]): had FGFR3 inhibition activity
HCl-N-pheophorbide a [HCl-N-Pa]	comparable FGFR3 inhibition activities	solubility as compared to Pa [3]: enhanced solubility
Na-pheophorbide a [NA-Pa]	comparable FGFR3 inhibition activities	solubility as compared to Pa [3]: enhanced solubility
Pyropheophorbide a [PyroPa]	inhibit FGFR3 activation; also recorded: stronger than any of the tested photosensitizers	
chlorophyllin A [reference compound]	had FGFR3 inhibition activity	
pheophorbide a [Pa]	inhibit FGFR3 activation	body weight vs DMSO-treated mice (WT mice): increased body weight; inhibition of KMS-11 cell proliferation (KMS-11 cells): inhibited FGFR3-dependent cell proliferation; body weight vs DMSO-treated mice (FGFR3^ACH/ACH mice): increased body weight
pyropheophorbide-a methyl ester [reference compound]	had FGFR3 inhibition activity	
